According to patent publication US6656925B2, “Composition and method of treating arthritis” (Advanced Medical Instruments, priority 1998, dated 2003):

How the values were obtained:
[1] = absorbed by the gastrointestinal tract, significant first-pass metabolism in the liver; cited from earlier work
osteoarthritis symptoms = conditions: cited from earlier work
weakness of hind legs = experiment: Case report: 12 year old Weimaraner with weakness of hind legs (Example 3); format: in vivo, dog (Weimaraner); conditions: prednisone 20 mg per day
Experimental: A 12 year old Weimaraner developed weakness of his hind legs which limited his ability to jump and lift his leg to urinate. […] He was then started on the new composition, of the invention, comprising zinc acetate 20 mg and glucosamine sulfate 500 mg coated with polyvinylpirrolidone 7 mg taken twice a day. […] He was then maintained on glucosamine sulfate 500 mg and zinc acetate 10 mg, twice a day for 11 months until his death.

[2] = most common adverse effect of zinc therapy; cited from earlier work

With `N[C@H]1C(O)O[C@H](CO)[C@@H](O)[C@@H]1O` (some centres unmarked) [Glucosamine] as the compound, how does the bioavailibility [1] read?
Its bioavailibility is 26%.

With `N[C@H]1C(O)O[C@H](CO)[C@@H](O)[C@@H]1O.O=S(=O)(O)O` (some centres unmarked) [glucosamine sulfate] as the compound, how does the “persistence of clinical improvement after discontinuation” value (osteoarthritis symptoms; after discontinuation) read?
The value was “up to four weeks”.

And the “onset of clinical improvement of symptoms” value (osteoarthritis symptoms; after oral administration)?
Its value is “as early as one week”.

For `C[C@]12C=CC(=O)C=C1CC[C@@H]1[C@@H]2C(=O)C[C@@]2(C)[C@H]1CC[C@]2(O)C(=O)CO` [prednisone], which “response of hind leg weakness” value (weakness of hind legs) is on record?
The value was “limited success”.

Which “gastrointestinal irritation, share of patients” value [2] does the source give for `[Zn]` [zinc] here?
Its value is “approximately 10 % of patients”.
